Source: patent US9962372B2, “Pharmaceutical composition for the treatment of mycosis” (priority 2015, dated 2018)
Read-outs that look alike come from different tables or passages of the source.

How the values were obtained:
C. albicans ATCC® 10231 = experiment: Broth dilution method: MIC and synergy; assay type: cell-based, Candida albicans; settings: for MIC: RPMI-1640, 35° C., 48 h; for MIC in combination with benzydamine: in combination with benzydamine 0.125 mg/ml
Experimental: (§1) Candida strains stored at −80° C. were thawed and streaked on SDA plate and then a second subculture was performed. Then, Candida strains suspensions were prepared as follows.
(§2) 10 ml of saline were placed in a 50 ml falcon tube with 5 g of glass beads. Loopful of the cells of the colonies of the second subculture were transferred into the saline and suspended by rubbing the loop against the wet wall of the tube to dislodge the cells. The tube was then shacked for 3 minutes using a mechanical shaker.
(§3) The number of cells in the suspension was adjusted from 1.5×10^6 to 5.0×10^6 colony forming units (CFU)/ml using saline according to Mc Farland standard No. 0.5 standard and reading the optical density at 550 nm.
(§4) For counting, serially 1:10 dilutions were prepared using saline, to obtain 10^−4 and 10^−5 dilutions of the suspension. A sample of 100 μl of each dilution was spread plate and incubated at 37° C. for 48 h.
(§5) The methodology used for the broth dilution method was similar to that disclosed in “EUCAST Definitive Document EDef 7.1: method for the determination of broth dilution MICs of antifungal agents for fermentative yeasts” (Clin Microbiol Infect 2008; 14: 398-408).
(§6) Then, serial 1:2 dilutions were prepared in DMSO, to concentrations from 10.0 mg/ml to 0.078 mg/ml. These solutions were further diluted 1:100 in RPMI-1640 (GiBCO® by Life Technologies) containing 2% glucose, 3-(N-morpholino) propanesulfonic acid (MOPS, by SIGMA) without NaHCO3, to final concentration from 100 μg/ml to 0.78 μg/ml.
as §6, with “from 1.250” for “from 10.0”, “to 0.0196” for “to 0.078”, “from 12.50” for “from 100”, “to 0.196” for “to 0.78”
as §6, with “from 5.0” for “from 10.0”, “to 0.3125” for “to 0.078”, “from 50” for “from 100”, “to 3.125” for “to 0.78”
(§7) Benzydamine was dissolved in water to a concentration of 25 mg/ml. Then, serial 1:2 dilutions were prepared in water, to concentrations from 25 mg/ml to 3.125 mg/ml. 1 ml of each solution was added to 24 ml (1:25 dilution) of RPMI-1640 (GiBCO® by Life Technologies) containing 2% glucose, 3-(N-morpholino) propanesulfonic acid (MOPS, by SIGMA) without NaHCO3, to final concentration from 1 mg/ml to 0.125 mg/ml.
As positive control Amphotericin B from a stock solution of 1600 μg/ml was diluted in DMSO to solutions having concentrations from 200 μg/ml to 50 μg/ml. These solutions were diluted 1:100 in RPMI-1640 (GiBCO®, by Life Technology) containing 2% glucose, 3-(N-morpholino) propanesulfonic acid (MOPS, by SIGMA) without NaHCO3, to concentrations from 2 μg/ml to 0.5 μg/ml.
(§8) (B) For synergy studies, further solutions of econazole, miconazole, clotrimazole and fluconazole nitrate having concentrations from 100 μg/ml to 0.049 μg/ml were prepared in RPMI-1640 as disclosed in paragraph 1.3.1(A).
(§9) Also, further solutions of benzydamine having concentrations from 1 mg/ml to 0.25 mg/ml were prepared in RPMI-1640 as disclosed in paragraph 1.3.1(A). Moreover, the solution of benzydamine with a concentration of 1 mg/ml was further diluted 1:1.43 with RPMI-1640 to concentration of 0.7 mg/ml.
(§10) Microdilution plates containing wells with a nominal capacity of about 300 μL/well were used.
(§11) The Candida strains suspensions prepared as described in paragraph 1.1 were grown on Sabouraud's agar medium SDA (Oxoid). Colonies were diluted in phosphate-buffered saline (PBS) and suspensions were adjusted to approximately 1-5×10^5 CFU/ml using Mc Farland 0.5 standard and reading the optical density at 550 nm.

C. tropicalis ATCC® 750 = experiment: Broth dilution method: MIC and synergy (FIC); assay type: cell-based, Candida tropicalis; settings: for MIC: RPMI-1640, 35° C., 48 h; for MIC in combination with benzydamine: in combination with benzydamine 0.175 mg/ml
Experimental: as §1, §2, §3, §4, §5, §6
as §6, with “from 1.250” for “from 10.0”, “to 0.0196” for “to 0.078”, “from 12.50” for “from 100”, “to 0.196” for “to 0.78”
as §6, with “from 5.0” for “from 10.0”, “to 0.3125” for “to 0.078”, “from 50” for “from 100”, “to 3.125” for “to 0.78”
as §7, §8, §9, §10, §11
(§12) (A) For the calculation of the MIC, microdilution plates containing in each well 100 μl of each solution of the active ingredients obtained as described in paragraph 1.3.1(A) were prepared. The wells were then inoculated with 100 μl of Candida strains suspensions obtained as disclosed above containing 1-5×10^5 CFU/ml.

[1] = test system: C. albicans ATCC® MYA-427; experiment: Broth dilution method: MIC and synergy; assay type: cell-based, Candida albicans; settings: for MIC: Candida albicans, active ingredient alone, RPMI-1640, 35° C., 48 h; for MIC in combination with benzydamine: in combination with benzydamine 0.125 mg/ml
Experimental: as §1, §2, §3, §4, §5, §6, §7, §8, §9, §10, §11, §12
(§13) In each well, the final inoculum density and the final concentration of the active ingredients was half of that used (i.e. the final inoculum density was 0.5-2.5×10^5 CFU/ml, the concentration of econazole and miconazole was from 50 μg/ml to 0.39 μg/ml, the concentration of clotrimazole was from 6.25 μg/ml to 0.098 μg/ml, the concentration of fluconazole was from 50 μg/ml to 3.125 μg/ml and the concentration of benzydamine was from 0.5 mg/ml to 0.0625 mg/ml).
(§14) The microdilution plates were incubated for 48 hours at 35° C.
(§15) (B) For synergy studies, microdilution plates containing in each well 50 μl of each solution of econazole and miconazole and 50 μl of each solution of benzydamine, obtained as disclosed in paragraph 1.3.1(B), were prepared. Then, the wells were inoculated with 100 μl of the 1-5×10^5 CFU/ml Candida suspensions. […]

[2] = test system: C. albicans ATCC® MYA-574 fluconazole resistant; experiment: Broth dilution method: MIC and synergy; assay type: cell-based, Candida albicans; settings: for MIC: Candida albicans, active ingredient alone, RPMI-1640, 35° C., 48 h
Experimental: as §1, §2, §3, §4, §5, §6, §7, §8, §9, §10, §11, §12, §13, §14, §15

[3] = test system: C. lusitaniae ATCC® 34449; experiment: Agar dilution method: MIC and synergy (FIC); assay type: cell-based, Candida lusitaniae; settings: for MIC: Clavispora lusitaniae, ATCC34449, active ingredient alone, agar dilution, Sabouraud agar, 35° C., 48 h, complete inhibition of growth
Experimental: Candida strains stored at -80° C. were thawed and streaked on SDA plate and then a second subculture was performed. Then, Candida strains suspensions were prepared as follows. 10 ml of saline were placed in a 50 ml falcon tube with 5 g of glass beads. Loopful of the cells of the colonies of the second subculture were transferred into the saline and suspended by rubbing the loop against the wet wall of the tube to dislodge the cells. The tube was then shacked for 3 minutes using a mechanical shaker. The number of cells in the suspension was adjusted from 1.5×10^6 to 5.0×10^6 colony forming units (CFU)/ml using saline according to Mc Farland standard No. 0.5 standard and reading the optical density at 550 nm. For counting, serially 1:10 dilutions were prepared using saline, to obtain 10^-4 and 10^-5 dilutions of the suspension. A sample of 100 μl of each dilution was spread plate and incubated at 37° C. for 48 h. […] The methodology was similar to that disclosed by R. Moody et al., “In Vitro Activities of Miconazole, Miconazole Nitrate, and Ketoconazole Alone and Combined with Rifampin against Candida spp. and Torulopsis glabrata Recovered from Cancer Patients.”, Antimicrobial Agents and Chemotherapy: 1980, 17, 871-875. Standard Petri dishes (92 mm diameter×16 mm height) were used. After the agar was poured, plates were allowed to cool and then immediately used. […] All the Petri dishes were incubated at 35° C. for 48 h. (B) For synergy studies, the surface of each Petri dish prepared as described in paragraph 1.2.1(B) was inoculated with four spots (20 μl inoculum volume) of the Candida strains suspensions prepared as described in paragraph 1.1, and incubated at 35° C. for 48 hours. The lowest concentration of drug that produced a complete inhibition of growth for a certain Candida strain was regarded as the minimal inhibitory concentration (MIC) for said strain. […] The synergistic effect of the combinations comprising benzydamine and econazole nitrate was evaluated by calculating the fractional inhibitory concentration (FIC), in accordance with […]. et al. in Antimicrobial Agents and Chemotherapy, February 2010, p. 602-609. […] FIC[combination b+e]=[…]] is the fractional inhibitory concentration of benzydamine with respect to a specific Candida strain, calculated as the ratio between the MIC of benzydamine in the presence of a sub-MIC amount of econazole (MIC(b+e)) and the MIC of benzydamine alone (MIC(b)), as follows: FIC[e] is the fractional inhibitory concentration of econazole with respect to a specific Candida strain, calculated as the ratio between the MIC of econazole in the presence of a sub-MIC amount of benzydamine (MIC(e+b)) and the MIC of econazole alone (MIC(e)), as follows: […]

[4] = Candida albicans, ATCC10231, active ingredient alone, read-out: MIC
[5] = Candida tropicalis, ATCC750, active ingredient alone, read-out: MIC

Compound	MIC (C. albicans ATCC® 10231; active ingredient alone) [µg/mL]	MIC (C. tropicalis ATCC® 750; active ingredient alone) [µg/mL]	MIC in combination with benzydamine (C. tropicalis ATCC® 750) [µg/mL]	MIC (C. albicans ATCC® 10231; [4]) [µg/mL]	MIC [1] [µg/mL]	MIC [2] [µg/mL]	MIC of benzydamine in combination with econazole ([2]; in combination with econazole) [µg/mL]	MIC of benzydamine in combination with miconazole ([2]; in combination with miconazole) [µg/mL]	MIC (C. tropicalis ATCC® 750; [5]) [µg/mL]	MIC [3] [µg/mL]	FIC[b] (fractional inhibitory concentration of benzydamine) ([3]; MIC of benzydamine in presence of sub-MIC econazole / MIC of benzydamine alone)	MIC in combination with benzydamine (C. albicans ATCC® 10231) [µg/mL]	MIC in combination with benzydamine [1] [µg/mL]	MIC in combination with benzydamine [2] [µg/mL]	FIC[e] (fractional inhibitory concentration of econazole) ([3]; MIC of econazole in presence of sub-MIC benzydamine / MIC of econazole alone)
Fluconazole nitrate	3.125	50	6.25	–	–	–	–	–	–	–	–	–	–	–	–
CN(C)CCCOc1nn(Cc2ccccc2)c2ccccc12 [Benzydamine]	–	–	–	500	500	500	125	62.5	500	500	0.25	–	–	–	–
Clotrimazole nitrate	0.025	6.25	0.098	–	–	–	–	–	–	–	–	–	–	–	–
Clc1ccc(COC(Cn2ccnc2)c2ccc(Cl)cc2Cl)c(Cl)c1 (stereo not drawn) [Miconazole nitrate]	–	–	0.78	6.25	25	50	–	–	6.25	–	–	1.56	0.78	12.5	–
C[C@@H]1[C@H](O)[C@@H](C)/C=C/C=C/C=C/C=C/C=C/C=C/C=C/[C@H](O[C@@H]2O[C@H](C)[C@@H](O)[C@H](N)[C@@H]2O)C[C@@H]2O[C@](O)(C[C@@H](O)C[C@@H](O)[C@H](O)CC[C@@H](O)C[C@@H](O)CC(=O)O[C@H]1C)C[C@H](O)[C@H]2C(=O)O [Amphotericin B]	0.5	–	–	–	–	–	–	–	–	–	–	–	–	–	–
Clc1ccc(COC(Cn2ccnc2)c2ccc(Cl)cc2Cl)cc1 (stereo not drawn) [Econazole nitrate]	–	–	1.56	25	25	25	–	–	12.5	1.56	–	3.125	1.56	12.5	0.0628
